Experiments:
[1] = system: BxPC-3 pancreatic cancer cell line; experiment: MTT cell viability assay, BxPC-3; type: cell-based, human; conditions: for inhibitory effect compared to parent compound LLM4: BxPC-3, 25 μM, 48 hours; for IC50: Homo sapiens
Protocol: (§1) Human breast cancer cell lines MCF7, MDA-MB-231 and SUM159 were maintained in Dulbecco's modified Eagle medium (DMEM). Human pancreatic cancer cell line BxPC-3 was maintained in RPMI 1640 medium. Human pancreatic cancer cell line Capan-1 was maintained in Iscove's Modified Dulbecco's Medium (IMEM). All media were supplemented with 10% FBS and 1% penicillin/streptomycin, and cells were incubated in a humidified 37° C. incubator with 5% CO2. PE/CA-PJ49 cell line was purchased from external sources and maintained according to manufacturer's protocol.
(§2) Cell viability was evaluated by using the MTT assay in triple replicates in one experiment and repeated for three times. Cancer cells were seeded in 96-well plates at a density of 3,000 cells per well. The cells were incubated at 37° C. for a period of 24 hours. Escalating concentrations of IL-6/gp130 inhibitors were added in triplicate to the plates in the presence of 10% FBS. After incubation for 48 or 72 hours, a stock solution of MTT (0.5 mg/ml) was then added to each well containing the treated cells, followed by incubation at 37° C. for 3 h. After removal of medium, the MTT dye was dissolved with spectrophotometric grade DMSO and the absorbance was read at 570 nm. The IC50 value is determined by interpolation based on the absorbance value halfway between positive and negative controls. In the experiment of LLM4 showing higher efficacy in cancer cells with higher levels of IL-6, instead of using medium with 10% FBS, DMEM with 0% FBS was used in order to eliminate the influence of trace amounts of growth factors and cytokines in FBS.

[2] = system: SUM159 breast cancer cell line; experiment: MTT cell viability assay, SUM159; type: cell-based, human; conditions: for IC50: Homo sapiens; for inhibitory effect compared to parent compound LLM4: SUM159, 25 μM, 48 hours
Protocol: as §1
as §2, with “controls.” for “controls. In the experiment of LLM4 showing higher efficacy in cancer cells with higher levels of IL-6, instead of using medium with 10% FBS, DMEM with 0% FBS was used in order to eliminate the influence of trace amounts of growth factors and cytokines in FBS.”

[3] = system: multiple myeloma cell line U266; experiment: Cell viability assay, U266; type: cell-based, human; conditions: for IC50: Homo sapiens, U-266, U266, 72 h; for inhibitory effect compared to parent compound LLM4: U266, 25 μM, 48 and 72 hours
Protocol: as §2
It was reported in multiple myeloma cell line U266 that IL-6 is also elevated and of great importance for cancer progression [Jernberg W, Pettersson M, Carlsson M, et al. Increase in interleukin 6 (IL-6) and IL-6 receptor expression in a human multiple myeloma cell line, U-266, during long-term in vitro culture and the development of a possible autocrine IL-6 loop 1. Leukemia. 1992, 4, 310-318]. These novel IL-6/gp130 inhibitors were tested in U266 cells at a concentration of 25 μM for an incubation time of 48 and 72 hours. MDL16 and LLM4 were used as control compounds.

[4] = system: IL-6 induced STAT3 phosphorylation; experiment: Western blot, IL-6 induced STAT3 phosphorylation in MCF7; type: cell-based, human
Protocol: Cells were harvested and lysed in cold radioimmunoprecipitation assay (RIPA) lysis buffer containing proteasome inhibitor cocktail and phosphatase inhibitor cocktail. The protein concentrations were determined using the BCA Protein Assay kit. After adding the loading buffer and boiling at 95° C. for 10 minutes, equivalent amounts of proteins were loaded on and separated by SDS-PAGE, and then were transferred to PVDF membranes. Membranes were probed with primary antibodies (1:1000) against phospho-STAT3 (Tyr705), STAT3, phospho-STAT1 (Tyr701), STAT1, phospho-STAT6 (Tyr 641), STAT6, and GAPDH, respectively, and horseradish peroxidase (HRP)-conjugated secondary antibody (1:10000) (Cell Signaling Technology, Beverly, Mass.). Membranes were analyzed using Enhanced Chemiluminescence Plus reagents and either scanned with the Storm Scanner (Amersham Pharmacia Biotech, Inc., Piscataway, N.J.) or imaged with ChemiDoc MP imaging system (Bio-Rad, Hercules, Calif.). For cytokine induction of STAT3 phosphorylation, MCF-7 breast cancer cells were seeded in 10 cm plates (1 million cells per plate) and allowed to adhere overnight followed by serum-starvation. […] After designated hours, LLM-418 treated and untreated cells were stimulated by IL-6, LIF, and OSM (50 ng/mL). The cells were harvested after 30 minutes and analyzed by Western blot.
MCF7 breast cancer cells were seeded in 10 cm plates (1 million cells per plate) and allowed to adhere overnight. The following day, the cells were serum-starved. The cells were then left untreated or treated with LLM4 (5-20 μM). After designated hours, the LLM4 treated and untreated cells were stimulated by IL-6, LIF, OSM, CNTF, CT-1, IL-11, IL-4 or INF-γ (50 ng/ml). The cells were harvested after 30 minutes and analyzed by western blotting.

gp130-D1-D3 = target: T1, gp130-D1-D3 (Homo sapiens, UniProt P40189); experiment: SPR direct binding to immobilized gp130-D1-D3 (CM5 chip); conditions: for Kd: SPR, gp130-D1-D3, linear regression at low concentrations, 25% Rmax; for ΔGexp: experimental binding energy from SPR KD
T1 construct: residues 1-301, the numbering system is based on PDB 3L5H, which is the mature form of gp130; tandem TFH purification tag (includes FLAG, as purified on anti-FLAG M2 agarose) (C); made in house; host or cells: Hi5 insect cells (baculovirus; virus generated in sf9)
T1 sequence (P40189 23-323): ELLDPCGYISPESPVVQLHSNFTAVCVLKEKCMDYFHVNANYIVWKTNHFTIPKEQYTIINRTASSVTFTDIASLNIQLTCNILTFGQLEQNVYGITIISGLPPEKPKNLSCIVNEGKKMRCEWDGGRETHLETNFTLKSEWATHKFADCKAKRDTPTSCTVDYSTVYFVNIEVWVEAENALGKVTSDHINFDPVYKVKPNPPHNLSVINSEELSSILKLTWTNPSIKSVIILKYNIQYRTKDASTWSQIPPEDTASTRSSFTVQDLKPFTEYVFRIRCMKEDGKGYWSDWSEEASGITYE

[5] = MCF7, 1-4 μM, 5 h, IL-6 50 ng/ml

Row | Compound | inhibitory effect compared to parent compound LLM4 [1] | IC50 ([1]; BXPC-3, 48 h) | IC50 ([1]; BxPC-3, Table 7) | IC50 ([2]; SUM159, 48 h) | IC50 ([2]; SUM159, SUM159, Table 7) | inhibitory effect compared to parent compound LLM4 [2] | IC50 [3] | inhibitory effect compared to parent compound LLM4 [3] | inhibition of IL-6 induced STAT3 phosphorylation [4, 5] | Kd (gp130-D1-D3) | ΔGexp (gp130-D1-D3) | inhibition of IL-6 induced STAT3 phosphorylation ([4]; MCF7, 4 μM, 2, 3 and 4 hours) | IC50 ([1]; BxPC-3, text b401) | IC50 ([2]; SUM159, SUM159 human breast cancer cell line, MTT) | inhibition of IL-6 induced STAT3 phosphorylation ([4]; MCF7, 15 μM, 2, 3 and 4 hours) | inhibition of STAT3 phosphorylation induced by IL-6 ([4]; MCF7, 20 μM) | amount of P-STAT3 stimulated by IL-6 ([4]; MCF7, 5-20 μM, 5 h, IL-6 50 ng/ml, western blot) | phosphorylation of STAT3 induced by IL-6 ([4]; MCF7, treatment with 10 LLM4)
1 | O=C(Nc1cccc(OCCN2CCCCC2)c1)Nc1cccc(-c2ccn[nH]2)c1 [LLM414, 1-(3-(1H-pyrazol-5-yl)phenyl)-3-(3-(2-(piperidin-1-yl)ethoxy)phenyl)urea] | greater inhibitory effect | 8.3 µM | 8.3 µM | 2.8 µM | 2.8 µM | greater inhibitory effect | 1.9 µM | greater inhibitory effects | inhibited STAT3 phosphorylation stimulated by IL-6 in MCF7 cells in a dose dependent manner | 15.6 µM | -6.55 kcal/mol | – | – | – | – | – | – | –
2 | O=C(Nc1ccccc1-c1ccn[nH]1)c1ccc(OCCN2CCCCC2)cc1 [LLM418, N-(2-(1H-pyrazol-5-yl)phenyl)-4-(2-(piperidin-1-yl)ethoxy)benzamide] | greater inhibitory effect | 1.2 µM | 1.2 µM | 1.7 µM | 1.7 µM | greater inhibitory effect | 1.2 µM | greater inhibitory effects | inhibited STAT3 phosphorylation stimulated by IL-6 in MCF7 cells in a dose dependent manner | 20.5 µM | -6.39 kcal/mol | inhibit IL-6 induced STAT3 phosphorylation quite effectively | – | – | – | – | – | –
3 | O=C(Nc1cc(F)ccc1-n1cccc1)c1ccc(OCCCN2CCCCC2)cc1 [LLM4, N-(5-fluoro-2-(1H-pyrrol-1-yl)phenyl)-4-(3-(piperidin-1-yl)propoxy)benzamide] | – | 10.9 ± 5.7 µM | – | 14.5 ± 3.5 µM | – | – | 10.9 ± 1.5 µM | – | – | – | – | – | 3.9 µM | 17 ± 5.5 µM | inhibit IL-6 induced STAT3 phosphorylation quite effectively | almost complete inhibition | decreased with increasing concentrations | Significant reduction
